Experimental data reported in patent publication US6767552B2, “Adhesive treatment for oral fungal infection” (Closure Medical Corporation, priority 2001, dated 2004).

Assay: Observation of the haloprogin / 2-octyl cyanoacrylate monomer composition in a sealed glass vial
Type: physicochemical
Conditions: 30 mg haloprogin in 2 mL 2-octyl cyanoacrylate monomer
Protocol: A 2-octyl cyanoacrylate monomer composition is prepared by adding 30 mg of haloprogin, an anti-fungal agent, to 2 mL of 2-octyl cyanoacrylate monomer. The mixture is sealed in a glass vial and stirred. The characteristics of the composition are observed at about one minute after preparation and later at least twenty-four hours after preparation.

- premature polymerization of the monomer (at least twenty-four hours after preparation): does not cause premature polymerization
- solubility of haloprogin in the monomer (observed about one minute and at least twenty-four hours after preparation): soluble
Compound: Clc1cc(Cl)c(OCC#CI)cc1Cl [haloprogin]
